Data reported in US20150004134A1, “TREATMENT OF CANCER WITH HETEROCYCLIC INHIBITORS OF GLUTAMINASE” (Calithera Biosciences, Inc., priority 2012, published 2015).
Where two headings read alike, the source gives them in different places.

Tested on: P493-6 (myc "on") cells
Test: Cell Proliferation Assay
Assay type: cell-based
Procedure, shortened: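 Read-out: either Cell Titer Glo or Guava Viacount flow analysis after 72 h compound treatment of myc-on P493-6 cells (10,000/well, RPMI with 10% FBS) at 37 °C. DMSO held at 0.5% final.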

[1] = P493-6, 72 h, read-out: Cell prolif P493 72 h IC50, P493 cells, 72 h
[2] = P493-6, 72 h, read-out: Cell prolif P493 72 h IC50, P493-6 cells, 72 h

SMILES	IC50 [1]	further results
O=C(Cc1ccccc1)Nc1nnc(CCCCc2nnc(NC(=O)Cc3cccc(Cn4cccn4)c3)s2)s1 [Compound 392]	72 nM	
O=C(Nc1nnc(CCCCc2nnc(NC(=O)C3(c4ccccc4)CCOCC3)s2)s1)C1(c2ccccc2)CCOCC1 [Compound 166]	6800 nM	
CCOc1ccc(CC(=O)Nc2nnc(CCCCc3ccc(NC(=O)Cc4ccccc4)nn3)s2)cc1OC [Compound 547]		IC50 [2]: 31 nM
CC(=O)O[C@H](C(=O)Nc1nnc(CCSCCc2nnc(NC(=O)[C@@H](OC(C)=O)c3ccccc3)s2)s1)c1ccccc1 [Compound 71]	6900 nM	
O=C(Cc1ccsc1)Nc1nnc(CCSCCc2nnc(NC(=O)Cc3ccsc3)s2)s1 [Compound 84]	890 nM	
CC(C)(C)OC(=O)N1CCC(CC(=O)Nc2nnc(CCCCc3nnc(NC(=O)CC4CCN(C(=O)OC(C)(C)C)CC4)s3)s2)CC1 [Compound 114]	560 nM	
COCCC(=O)Nc1nnc(CCCCc2nnc(NC(=O)CCOC)s2)s1 [Compound 100]	9000 nM	
O=C(Cc1ccccc1CO)Nc1nnc(CCSCCc2nnc(NC(=O)Cc3ccccc3CO)s2)s1 [Compound 181, N,N′-(5,5′-(thiobis(ethane-2,1-diyl))bis(1,3,4-thiadiazole-5,2-diyl))bis(2-(2-(hydroxymethyl)phenyl)acetamide)]	30000 nM	
O=C(Cc1ccccn1)Nc1nnc(CCSCCc2nnc(NC(=O)Cc3ccccn3)s2)s1 [Compound 308]	1200 nM	
[2H]C([2H])(CCc1nnc(NC(=O)Cc2ccccn2)s1)C([2H])([2H])c1ccc(NC(=O)Cc2cccc(OC(F)(F)F)c2)nn1 [Compound 727]		IC50 (read-out: Cell prolif P493 72 h IC50, 72 h): 12 nM
O=C(COc1ccccc1)Nc1nnc(CCCCc2nnc(NC(=O)COc3ccccc3)s2)s1 [Compound 43]	> 50000 nM	
C[C@H](NC(=O)OC(C)(C)C)C(=O)Nc1nnc(CCSCCc2nnc(NC(=O)[C@H](C)NC(=O)OC(C)(C)C)s2)s1 [Compound 49]	17000 nM	
O=C(Cc1ccccc1)Nc1nnc(CCCCc2nnc(NC(=O)[C@@H]3CCCC[C@H]3C(O)c3ccccc3)s2)s1 (some centres unmarked) [Compound 304]	4900 nM	
CC(C)(C)OC(=O)N1CCN(Cc2cc(CC(=O)Nc3nnc(CCCCc4ccc(NC(=O)Cc5ccccc5)nn4)s3)ccc2F)CC1 [Compound 493]		IC50 [2]: 57 nM
O=C(Cc1cccnc1)Nc1nnc(CCCCc2nnc(NC(=O)Cc3cccnc3)s2)s1 [Compound 311]	22000 nM	
O=C(Nc1nnc(CCCCc2nnc(NC(=O)C(OCCO)c3ccccc3)s2)s1)C(OCCO)c1ccccc1 (centres unmarked) [Compound 252]	6300 nM	
O=C(Nc1nnc(CCCCc2nnc(NC(=O)[C@@H](O)Cc3ccccc3)s2)s1)[C@@H](O)Cc1ccccc1 [Compound 146]	460 nM	
O=C(Cc1ccccc1)Nc1nnc(CCCCc2nnc(NC(=O)Cc3ccccc3CO)s2)s1 [Compound 333]	1600 nM	
O=C(Cc1ccsc1)Nc1nnc(CCCCc2nnc(NC(=O)Cc3ccsc3)s2)s1 [Compound 88]	120 nM	
N#Cc1cccc(CC(=O)Nc2nnc(CCSCCc3nnc(NC(=O)Cc4cccc(C#N)c4)s3)s2)c1 [Compound 155]	1900 nM	
Cc1nccn1Cc1cccc(CC(=O)Nc2nnc(CCCCc3nnc(NC(=O)Cc4cccc(Cn5ccnc5C)c4)s3)s2)c1 [Compound 296]	170 nM	
COCCOC(C(=O)Nc1nnc(CCCCc2nnc(NC(=O)C(OCCOC)c3ccccc3)s2)s1)c1ccccc1 (centres unmarked) [Compound 203]	1700 nM	
O=C(Cc1ccccc1)Nc1nnc(CCSCc2nnc(NC(=O)Cc3ccccn3)s2)s1 [Compound 373]	280 nM	
COc1ccccc1CC(=O)Nc1nnc(CCSCCc2nnc(NC(=O)C(CO)c3ccccc3OC)s2)s1 (centres unmarked) [Compound 246]	1600 nM	
COc1ccc(OC)c(CC(=O)Nc2nnc(CCCc3nnc(NC(=O)Cc4cc(OC)ccc4OC)s3)s2)c1 [Compound 265]	310 nM	

SMILES	IC50 [1]	further results
COc1ccc(CC(=O)Nc2nnc(CCCCc3ccc(NC(=O)Cc4ccccc4)nn3)s2)cc1O [Compound 582]		IC50 [2]: 46 nM
O=C(Nc1nnc(CCCCc2nnc(NC(=O)C(O)c3cccc(F)c3F)s2)s1)C(O)c1cccc(F)c1F (centres unmarked) [Compound 211]	1000 nM	
COc1cccc(CC(=O)Nc2nnc(CCSCCc3nnc(NC(=O)Cc4cccc(OC)c4)s3)s2)c1 [Compound 156]	630 nM	
O=CO[C@@H](C(=O)Nc1nnc(CCCCc2nnc(NC(=O)[C@H](OC=O)c3ccccc3)s2)s1)c1ccccc1 [Compound 68]	340 nM	
O=C(Nc1nnc(CCSCCc2nnc(NC(=O)c3ccccc3)s2)s1)c1ccccc1 [Compound 2]		IC50 (P493-6, read-out: Cell prolif P493 72 h IC50, P493 cells, 72 h): 630 nM
CC(C)(C)OC(=O)NCc1cccc(CC(=O)Nc2nnc(CCCCc3ccc(NC(=O)C(O)c4cccc(Cl)c4)nn3)s2)c1 (centres unmarked) [Compound 422]		IC50 [2]: 6 nM
O=C(Cc1ccccc1)Nc1ccc(CCCCc2nnc(NC(=O)Cc3cccc4c3CNC4)s2)nn1 [Compound 650]		IC50 [2]: 140 nM
O=C(Nc1nnc(CCSCCc2nnc(NC(=O)C3CCOC3)s2)s1)C1CCOC1 (centres unmarked) [Compound 95]	45000 nM	
COc1ccc2c(c1)CC(C(=O)Nc1nnc(CCCCc3nnc(NC(=O)C4Cc5cc(OC)ccc5O4)s3)s1)O2 (centres unmarked) [Compound 121]	3500 nM	
CC(C(=O)Nc1nnc(CCSCCc2nnc(N)s2)s1)c1ccccc1 (centres unmarked) [Compound 20]	2600 nM	
O=C(Cc1ccccc1)Nc1nnc(CCCCc2nnc(NC(=O)C(CO)c3ccccc3)s2)s1 (centres unmarked) [Compound 316]	75 nM	
O=C(Cc1ccccc1Br)Nc1nnc(CCCCc2nnc(NC(=O)Cc3ccccc3Br)s2)s1 [Compound 282]	370 nM	
CC(NC(=O)OC(C)(C)C)c1cccc(CC(=O)Nc2nnc(CCCCc3ccc(NC(=O)Cc4ccccc4)nn3)s2)c1 (centres unmarked) [Compound 541]		IC50 [2]: 6 nM
Cc1noc(Cc2cccc(CC(=O)Nc3ccc(CCCCc4nnc(NC(=O)Cc5ccccc5)s4)nn3)c2)n1 [Compound 648, 2-(3-((3-methyl-1,2,4-oxadiazol-5-yl)methyl)phenyl)-N-(6-(4-(5-(2-phenylacetamido)-1,3,4-thiadiazol-2-yl)butyl)pyridazin-3-yl)acetamide]		IC50 [2]: 11 nM
O=C(Cc1ccco1)Nc1nnc(CCCCc2nnc(NC(=O)Cc3ccco3)s2)s1 [Compound 86]	520 nM	
O=C(Nc1nnc(CCCCc2nnc(NC(=O)C3CC4CCC3C4)s2)s1)C1CC2CCC1C2 (centres unmarked) [Compound 55]	3900 nM	
O=C(Cc1ccc2ncccc2c1)Nc1nnc(CCCCc2nnc(NC(=O)Cc3ccc4ncccc4c3)s2)s1 [Compound 269]	520 nM	
COc1ccc(CC(=O)Nc2nnc(CCSCCc3nnc(NC(=O)Cc4ccc(OC)cc4)s3)s2)cc1 [Compound 161]	1400 nM	
CC(NC(=O)OC(C)(C)C)c1cccc(CC(=O)Nc2ccc(CCCCc3nnc(NC(=O)C(C)c4ccccc4)s3)nn2)c1 (centres unmarked) [Compound 603]		IC50 [2]: 23 nM
CCCC(=O)OCN(C(=O)Cc1ccccc1)c1nnc(CCSCCc2nnc(N(COC(=O)CCC)C(=O)Cc3ccccc3)s2)s1 [Compound 8]	1600 nM	
Nc1nnc(CCSCCc2nnc(NC(=O)[C@@H]3CCCN3C(=O)C(F)(F)F)s2)s1 [Compound 23]	> 50000 nM	
COC(=O)C(C(=O)Nc1nnc(CCSCCc2nnc(NC(=O)C(C(=O)OC)c3ccccc3)s2)s1)c1ccccc1 (centres unmarked) [Compound 234]	2500 nM	
O=C(CC1CC1)Nc1nnc(CCCCc2nnc(NC(=O)CC3CC3)s2)s1 [Compound 85]	1800 nM	
O=C(Cc1ccccc1)Nc1nnc(CCSCCc2nnc(NC(=O)Cc3ccccn3)s2)s1 [Compound 359]	910 nM	
COc1cc(CC(=O)Nc2nnc(CCCCc3ccc(NC(=O)Cc4ccccc4)nn3)s2)ccc1F [Compound 515]		IC50 [2]: 59 nM
